Measurements published in ChEMBL document CHEMBL1133901, “Synthesis and potassium channel opening activity of substituted 10H-benzo[4,5]furo[3,2-b]indole-and 5,10-dihydro-indeno[1,2-b]indole-1-carboxylic acids” (Bioorg Med Chem Lett, 2001).

organism: Rattus norvegicus; test: Concentration that relaxed KCl-induced contractions in rat detrusor strips by 50%; type: functional; conditions: not given

Row | Compound | IC50 [µM]
1 | O=C(O)c1cccc2c1[nH]c1c3cc([N+](=O)[O-])ccc3oc21 | 6.3
2 | O=C(O)c1cccc2c1[nH]c1c3cc(Br)ccc3oc21 | 15.1
3 | O=Cc1cccc2c1[nH]c1c3cc(Br)ccc3oc21 | > 30
4 | COC(=O)c1cccc2c1[nH]c1c3cc(Br)ccc3oc21 | > 30
5 | Cn1c2c(C(=O)O)cccc2c2oc3ccc(Br)cc3c21 | > 30
6 | O=C(O)c1cccc2c1[nH]c1c3ccccc3oc21 | 30
7 | O=C(O)c1cccc2c1[nH]c1c3cc(I)ccc3oc21 | 6.1
8 | NS(=O)(=O)c1ccc2[nH]c3c(c2c1)Cc1c(C(=O)O)cccc1-3 | > 30
9 | O=C(O)c1cccc2c1Cc1c-2[nH]c2ccc(OC(F)(F)F)cc12 | 15.4
10 | O=C(O)c1cccc2c1Cc1c-2[nH]c2ccc(I)cc12 | 10.1
11 | O=C(O)c1cccc2c1Cc1c-2[nH]c2ccc(Cl)cc12 | 22.6
12 | CC1(C)c2ccc([N+](=O)[O-])cc2-c2[nH]c3c(C(=O)O)cccc3c21 | 5.2
13 | NC(=O)c1cccc2c1[nH]c1c3cc(Br)ccc3oc21 | > 30
14 | O=C(O)c1cccc2c1[nH]c1c3cc(Cl)ccc3oc21 | 5.8
15 | O=C(O)c1cccc2c1Cc1c-2[nH]c2ccc(Br)cc12 | 4.4

organism: Rattus norvegicus; test: Concentration that relaxed KCl-induced contractions in rat aortic rings by 50%; type: functional; conditions: Aorta

Row | Compound | IC50 [µM]
16 | O=C(O)c1cccc2c1[nH]c1c3cc(Br)ccc3oc21 | 118
17 | O=C(O)c1cccc2c3c([nH]c12)-c1cc(Br)ccc1C3 | 210
18 | CC1(C)c2ccc([N+](=O)[O-])cc2-c2[nH]c3c(C(=O)O)cccc3c21 | 17.2
19 | O=C(O)c1cccc2c1Cc1c-2[nH]c2ccc(Br)cc12 | 109
